The values below come from patent US20250215010A1, “DIAZABICYCLOOCTANE DERIVATIVES USEFUL AS MATRIX METALLOPROTEINASE INHIBITORS” (VASA THERAPEUTICS SPOLKA Z OGRANICZONA ODPOWIEDZIALNOSCIA, priority 2022, published 2025).

Common to all, as to type: biochemical
In one assay the target is ADAM17 (TACE) (Homo sapiens, UniProt P78536). The assay can be described thus: TACE fluorometric inhibition assay (Enzo kit BML-AK310). As for the experimental part: (§1) The inhibitory activities of the compounds of the invention were assessed in 96-well microplate format using MMP1, MMP2, MMP9 and MMP13 colorimetric assay kits and TACE fluorometric assay kit from Enzo Life Sciences, Inc. The inhibitory effect of the compounds of the invention on ADAM10 activity were evaluated in 96-well microplate format using fluorometric assay from AnaSpec, Inc.
The TACE Fluorometric Drug Discovery Kit (catalog #BML-AK310) is a complete assay system designed to screen ADAM17 (TACE) inhibitors using a quenched fluorogenic peptide: Mca-PLAQAV-Dpa-RSSSR—NH2. Mca fluorescence is quenched by the Dpa group until cleavage by proteases separates the two moieties leading to an increase in Mca fluorescence.
The inhibitory activity of the compounds of the invention against TACE was tested according to the manufacturer's assay protocol and the fluorescence was monitored at excitation/emission wavelengths=320 nm/420 nm using Tecan Infinite® 200 Pro F Nano^+ microplate reader.
(§2) The normalized values were analyzed using GraphPadPrism 9 for Windows (GraphPad Software, San Diego, CA, USA) software by plotting inhibition curves and determining the IC50 values (in nM).

For another assay, the target named is MMP9 (Homo sapiens, UniProt P14780). Briefly: MMP-9 colorimetric inhibition assay (Enzo kit BML-AK410). Here is the method:
as §1
The MMP-9 Colorimetric Drug Discovery Kit (catalog #BML-AK410) is a complete assay system designed to screen inhibitors of matrix metalloproteinase-9 using a thiopeptide as a chromogenic substrate (Ac-PLG-[2-mercapto-4-methylpentanoyl]-LG-OC2H5). The MMP cleavage site peptide bond is replaced by a thioester bond in the thiopeptide. Hydrolysis of this bond by an MMP produces a sulfhydryl group, which reacts with DTNB [5,5′-dithiobis(2-nitrobenzoic acid), Ellman's reagent] to form 2-nitro-5-thiobenzoic acid, that can be detected spectrophotometrically.
(§3) The inhibitory activities of the compounds of the invention against MMP1, MMP2, MMP9 and MMP13 were tested according to the manufacturer's assay protocols and the absorbance at 415 nm was monitored using the Tecan Infinite® 200 Pro F Nano^+ microplate reader.
as §2

Another assay concerns the target T1, MMP13 (Homo sapiens, UniProt P45452).
T1 construct: purchased Enzo Life Sciences, Inc. BML-AK412
Briefly: MMP-13 colorimetric inhibition assay (Enzo kit BML-AK412). As for the experimental part: as §1
The MMP-13 Colorimetric Drug Discovery Kit (catalog #BML-AK412) is a complete assay system designed to screen inhibitors of matrix metalloproteinase-13 using a thiopeptide as a chromogenic substrate (Ac-PLG-[2-mercapto-4-methylpentanoyl]-LG-OC2H5). The MMP cleavage site peptide bond is replaced by a thioester bond in the thiopeptide. Hydrolysis of this bond by an MMP produces a sulfhydryl group, which reacts with DTNB [5,5′-dithiobis(2-nitrobenzoic acid), Ellman's reagent] to form 2-nitro-5-thiobenzoic acid, that can be detected spectrophotometrically.
as §3, §2

Another assay concerns the target T2, MMP1 (Homo sapiens, UniProt P03956).
T2 sequence (P03956 100-269 limits assumed): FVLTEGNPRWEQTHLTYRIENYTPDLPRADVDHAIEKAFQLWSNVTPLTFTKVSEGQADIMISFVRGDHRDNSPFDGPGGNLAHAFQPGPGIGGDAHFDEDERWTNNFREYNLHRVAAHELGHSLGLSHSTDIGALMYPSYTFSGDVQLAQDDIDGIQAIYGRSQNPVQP
Briefly: MMP-1 colorimetric inhibition assay (Enzo kit BML-AK404). As for the experimental part: as §1
The MMP-1 Colorimetric Drug Discovery Kit (catalog #BML-AK404) is a complete assay system designed to screen inhibitors of matrix metalloproteinase-1 using a thiopeptide as a chromogenic substrate (Ac-PLG-[2-mercapto-4-methylpentanoyl]-LG-OC2H5). The MMP cleavage site peptide bond is replaced by a thioester bond in the thiopeptide. Hydrolysis of this bond by an MMP produces a sulfhydryl group, which reacts with DTNB [5,5′-dithiobis(2-nitrobenzoic acid), Ellman's reagent] to form 2-nitro-5-thiobenzoic acid, that can be detected spectrophotometrically.
as §3, §2

In another assay the target is T3, MMP2 (Homo sapiens, UniProt P08253).
T3 sequence (P08253 110-660): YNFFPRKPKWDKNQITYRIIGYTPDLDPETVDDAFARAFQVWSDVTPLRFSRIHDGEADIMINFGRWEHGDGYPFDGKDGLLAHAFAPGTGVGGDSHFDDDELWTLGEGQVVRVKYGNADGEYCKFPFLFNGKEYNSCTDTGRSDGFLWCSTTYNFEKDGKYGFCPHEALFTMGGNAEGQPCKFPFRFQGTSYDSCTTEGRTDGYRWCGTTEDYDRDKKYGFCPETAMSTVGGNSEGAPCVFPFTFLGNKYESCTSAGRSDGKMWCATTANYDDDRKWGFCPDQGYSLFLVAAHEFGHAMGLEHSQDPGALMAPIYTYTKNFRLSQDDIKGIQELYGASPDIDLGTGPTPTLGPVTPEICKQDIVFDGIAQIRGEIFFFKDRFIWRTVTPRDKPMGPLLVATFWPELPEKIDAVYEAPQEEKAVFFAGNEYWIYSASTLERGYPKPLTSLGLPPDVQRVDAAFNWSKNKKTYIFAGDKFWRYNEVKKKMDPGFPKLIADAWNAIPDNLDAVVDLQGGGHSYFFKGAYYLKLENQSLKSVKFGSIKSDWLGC
Briefly: MMP-2 colorimetric inhibition assay (Enzo kit BML-AK408). As for the experimental part: as §1
The MMP-2 Colorimetric Drug Discovery Kit (catalog #BML-AK408) is a complete assay system designed to screen MMP-2 inhibitors using a thiopeptide as a chromogenic substrate (Ac-PLG-[2-mercapto-4-methylpentanoyl]-LG-OC2H5). The MMP cleavage site peptide bond is replaced by a thioester bond in the thiopeptide. Hydrolysis of this bond by an MMP produces a sulfhydryl group, which reacts with DTNB [5,5′-dithiobis(2-nitrobenzoic acid), Ellman's reagent] to form 2-nitro-5-thiobenzoic acid, that can be detected spectrophotometrically.
as §3, §2

Where [1] appears, read: quenched fluorogenic peptide, ex/em 320/420 nm, read-out: TACE IC50 class.
Where [2] appears, read: thiopeptide substrate, absorbance 415 nm, read-out: MMP 9 IC50 class.
Setting [3] is: thiopeptide substrate, absorbance 415 nm, read-out: MMP 13 IC50 class.
Where [4] appears, read: thiopeptide substrate, absorbance 415 nm, read-out: MMP 1 IC50 class.
The mark [5] stands for this setting: thiopeptide substrate, absorbance 415 nm, read-out: MMP 2 IC50 class.

Like-named read-outs stand apart in the source and are kept apart here.

ADAM17 (TACE), sequence (P78536 215-477 limits assumed): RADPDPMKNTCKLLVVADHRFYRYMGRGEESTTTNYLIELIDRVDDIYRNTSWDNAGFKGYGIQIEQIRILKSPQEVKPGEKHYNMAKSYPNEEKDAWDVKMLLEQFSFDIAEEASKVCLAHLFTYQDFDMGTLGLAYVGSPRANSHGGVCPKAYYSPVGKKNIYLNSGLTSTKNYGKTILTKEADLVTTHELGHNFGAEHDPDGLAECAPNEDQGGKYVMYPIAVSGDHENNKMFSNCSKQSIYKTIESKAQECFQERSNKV
MMP9, sequence (P14780 94-707): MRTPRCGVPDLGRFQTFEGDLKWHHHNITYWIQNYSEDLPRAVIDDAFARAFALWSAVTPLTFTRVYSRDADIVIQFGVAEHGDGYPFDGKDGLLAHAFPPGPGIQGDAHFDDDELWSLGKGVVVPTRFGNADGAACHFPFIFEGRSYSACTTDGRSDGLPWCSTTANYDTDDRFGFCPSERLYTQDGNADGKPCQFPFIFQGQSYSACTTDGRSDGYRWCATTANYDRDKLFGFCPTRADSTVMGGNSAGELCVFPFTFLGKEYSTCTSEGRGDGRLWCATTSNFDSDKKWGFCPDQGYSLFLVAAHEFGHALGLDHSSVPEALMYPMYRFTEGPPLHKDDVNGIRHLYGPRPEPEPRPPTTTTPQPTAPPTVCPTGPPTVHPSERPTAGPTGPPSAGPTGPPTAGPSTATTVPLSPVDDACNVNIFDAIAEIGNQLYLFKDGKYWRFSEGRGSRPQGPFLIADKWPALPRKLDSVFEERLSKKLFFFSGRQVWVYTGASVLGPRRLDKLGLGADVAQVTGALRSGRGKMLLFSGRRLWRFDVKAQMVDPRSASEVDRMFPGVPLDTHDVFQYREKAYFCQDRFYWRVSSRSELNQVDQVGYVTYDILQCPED

By IC50 is commonly meant the concentration that gives 50% inhibition. Turning to `COCCOC(=O)N1[C@@H]2CC[C@H]1[C@H](C(=O)NO)N(S(=O)(=O)c1ccc(Oc3cnc(OC)nc3)nc1)C2` [Example 27, 2-methoxyethyl (1S,2R,5R)-2-(hydroxycarbamoyl)-3-((6-((2-methoxy-pyrimidin-5-yl)oxy)-pyridin-3-yl)-sulfonyl)-3,8-diaza-bicyclo[3.2.1]octane-8-carboxylate], the IC50 on ADAM17 (TACE) (setting [1]) is 1 to 10 µM; on MMP9 (setting [2]), 0.05 to 1 µM; at MMP13 (setting [3]), 0.05 to 1 µM; at MMP1 (setting [4]), greater than 10 µM; on MMP2 (setting [5]), less than 0.05 µM.

For the compound `COCCOC(=O)N1[C@@H]2CC[C@H]1[C@H](C(=O)NO)N(S(=O)(=O)c1ccc(Oc3cncc(F)c3)nc1)C2` [Example 23, 2-methoxyethyl (1S,2R,5R)-3-((6-((5-fluoropyridin-3-yl)oxy)pyridin-3-yl)-sulfonyl)-2-(hydroxycarbamoyl)-3,8-diaza-bicyclo[3.2.1]octane-8-carboxylate], the IC50 on ADAM17 (TACE) (setting [1]) was 1 to 10 µM; at MMP9 (setting [2]), 0.05 to 1 µM; at MMP13 (setting [3]), 0.05 to 1 µM; at MMP1 (setting [4]), 0.05 to 1 µM; at MMP2 (setting [5]), less than 0.05 µM.

Regarding `COCCOC(=O)N1[C@@H]2CC[C@H]1[C@H](C(=O)NO)N(S(=O)(=O)c1ccc(Oc3ccc(C(C)(C)O)cc3)nc1)C2` [Example 26, 2-methoxyethyl (1S,2R,5R)-2-(hydroxycarbamoyl)-3-((6-(4-(2-hydroxy-propan-2-yl)-phenoxy)pyridin-3-yl)sulfonyl)-3,8-diazabicyclo[3.2.1]-octane-8-carboxylate], the half-maximal inhibitory concentration (IC50) at ADAM17 (TACE) (setting [1]) is 1 to 10 µM; on MMP9 (setting [2]), 0.05 to 1 µM; on MMP13 (setting [3]), 0.05 to 1 µM; on MMP1 (setting [4]) it was greater than 10 µM; at MMP2 (setting [5]), less than 0.05 µM.

Regarding `COCCOC(=O)N1[C@@H]2CC[C@H]1[C@H](C(=O)NO)N(S(=O)(=O)c1ccc(OC3CCC(C)(C)CC3)nc1)C2` [Example 12, 2-methoxyethyl (1S,2R,5R)-3-((6-((4,4-dimethyl-cyclohexyl)-oxy)pyridin-3-yl)-sulfonyl)-2-(hydroxycarbamoyl)-3,8-diazabicyclo[3.2.1]-octane-8-carboxylate], the 50% inhibitory concentration (IC50) at ADAM17 (TACE) (setting [1]) is 1 to 10 µM; on MMP9 (setting [2]), less than 0.05 µM; on MMP13 (setting [3]), 0.05 to 1 µM; on MMP1 (setting [4]), 1 to 10 µM; at MMP2 (setting [5]) it was 0.05 to 1 µM.

Consider `COCCOC(=O)N1[C@@H]2CC[C@H]1[C@H](C(=O)NO)N(S(=O)(=O)N1CCC(Oc3ccnc(C(F)(F)F)c3)CC1)C2` [Example 49, 2-methoxyethyl (1S,2R,5R)-2-(hydroxy-carbamoyl)-3-((4-((2-(trifluoro-methyl)pyridin-4-yl)oxy)-piperidin-1-yl)-sulfonyl)-3,8-diazabicyclo-[3.2.1]octane-8-carboxylate], for which the IC50 on ADAM17 (TACE) (setting [1]) was 1 to 10 µM; on MMP9 (setting [2]) it was 0.05 to 1 µM; on MMP13 (setting [3]), 0.05 to 1 µM; on MMP1 (setting [4]) it was greater than 10 µM; at MMP2 (setting [5]), 0.05 to 1 µM.

Regarding `COCCOC(=O)N1[C@@H]2CC[C@H]1[C@H](C(=O)NO)N(S(=O)(=O)c1ccc(OC3CCN(C(C)C)CC3)nc1)C2` [Example 75, 2-methoxyethyl (1S,2R,5R)-2-(hydroxycarbamoyl)-3-((6-((1-isopropyl-piperidin-4-yl)oxy)-pyridin-3-yl)-sulfonyl)-3,8-diaza-bicyclo[3.2.1]octane-8-carboxylate], the half-maximal inhibitory concentration (IC50) on ADAM17 (TACE) (setting [1]) fell in the range of 1 to 10 µM; on MMP9 (setting [2]), 0.05 to 1 µM; on MMP13 (setting [3]) it was 0.05 to 1 µM; at MMP1 (setting [4]) it was 1 to 10 µM; at MMP2 (setting [5]) it was 0.05 to 1 µM.

In the case of `CC(C)Oc1ccc(Oc2ccc(S(=O)(=O)N3C[C@H]4CC[C@@H]([C@@H]3C(=O)NO)N4C(=O)N3CCOCC3)cn2)cc1` [Example 71, (1S,2R,5R)-N-hydroxy-3-((6-(4-isopropoxyphenoxy)-pyridin-3-yl)sulfonyl)-8-(morpholine-4-carbonyl)-3,8-diazabicyclo[3.2.1]-octane-2-carboxamide], the IC50 at ADAM17 (TACE) (setting [1]) is greater than 10 µM; on MMP9 (setting [2]), 0.05 to 1 µM; on MMP13 (setting [3]) it was less than 0.05 µM; at MMP1 (setting [4]), 1 to 10 µM; on MMP2 (setting [5]), less than 0.05 µM.

Turning to `COCCOC(=O)N1[C@@H]2CC[C@H]1[C@H](C(=O)NO)N(S(=O)(=O)N1CCC(Oc3ccc(Cl)cc3)C1)C2` (stereo partly drawn) [Example 46, 2-methoxyethyl (1S,2R,5R)-3-((3-(4-chloro-phenoxy)-pyrrolidin-1-yl)-sulfonyl)-2-(hydroxy-carbamoyl)-3,8-diazabicyclo-[3.2.1]octane-8-carboxylate], the IC50 was 0.05 to 1 µM at ADAM17 (TACE); 0.05 to 1 µM on MMP9; 0.05 to 1 µM at MMP13; greater than 10 µM against MMP1; 0.05 to 1 µM at MMP2.

For the compound `COCCOC(=O)N1[C@@H]2CC[C@H]1[C@H](C(=O)NO)N(S(=O)(=O)c1ccc(Oc3ccc(C)nc3)nc1)C2` [Example 16, 2-methoxyethyl (1S,2R,5R)-2-(hydroxycarbamoyl)-3-((6-((6-methylpyridin-3-yl)-oxy)pyridin-3-yl)-sulfonyl)-3,8-diaza-bicyclo[3.2.1]octane-8-carboxylate], the IC50 was 1 to 10 µM at ADAM17 (TACE) (setting [1]); 0.05 to 1 µM at MMP9 (setting [2]); 0.05 to 1 µM at MMP13 (setting [3]); 1 to 10 µM at MMP1 (setting [4]); less than 0.05 µM at MMP2 (setting [5]).

As to `COCCOC(=O)N1[C@@H]2CC[C@H]1[C@H](C(=O)NO)N(S(=O)(=O)c1ccc(Oc3nc4cc(Cl)ccc4o3)c(F)c1)C2` [Example 81, 2-methoxyethyl (1S,2R,5R)-3-((4-((5-chlorobenzo[d]-oxazol-2-yl)oxy)-3-fluorophenyl)sulfonyl)-2-(hydroxy-carbamoyl)-3,8-diazabicyclo[3.2.1]-octane-8-carboxylate], the IC50 was 1 to 10 µM at ADAM17 (TACE) (setting [1]); 1 to 10 µM at MMP9 (setting [2]); greater than 10 µM at MMP13 (setting [3]); greater than 10 µM on MMP1 (setting [4]); greater than 10 µM on MMP2 (setting [5]).
